In patent US9085520B2, “Composition for treating diabetes and metabolic diseases and a preparation method thereof” (KAOHSIUNG MEDICAL UNIVERSITY, priority 2011, dated 2015):
“And” between values parts separate entries of the source, which are not always exact repeats. Equal values may be shown once.

system: 3T3-L1 adipocytes; assay: glucose consumption (remaining glucose) in culture medium of 3T3-L1 adipocytes; assay type: cell-based; conditions: 30 μg/ml; culture medium of 3T3-L1 adipocytes after 24 hours; means ± SD, N = 3; control 310 ± 4.0
Method: After precursor adipocytes 3T3-L1 were induced as the matured adipocytes, culture medium with glucose (concentration of 300 mg/dl) and drugs were added, and the concentration of the remaining glucose in the culture medium were measured after 24 hours.
Adipose tissues are major sites for postprandial glucose uptake. Therefore, in vitro anti-diabetic screening model based on measuring glucose consumption after 24 hours in culture medium of 3T3-L1 adipocytes was developed. […] Accordingly, 60 chalcone derivatives with and without substitutions on A-ring were examined in our developed model. […] Structure-activity relationship (SAR) analyses data are also determined.

`COc1ccc(/C=C/C(=O)c2ccccc2)cc1` [Compound 7, (E)-3-(4-methoxyphenyl)-1-phenylprop-2-en-1-one] and `O=C(/C=C/c1ccc(O)cc1)c1ccccc1` [Compound 29, (E)-3-(4-hydroxyphenyl)-1-phenylprop-2-en-1-one] are within error of each other in “remaining glucose concentration in culture medium after 24 hours” value (shortened to “remaining glucose concentration”): 261 ± 3.2 mg/dL for the first, 263 ± 5.6 mg/dL for the second.

`COc1cccc(/C=C/C(=O)c2ccccc2)c1` [Compound 8, (E)-3-(3-methoxyphenyl)-1-phenylprop-2-en-1-one] and `COc1cccc(/C=C/C(=O)c2ccccc2Br)c1` [Compound 13, (E)-1-(2-bromophenyl)-3-(3-methoxyphenyl)prop-2-en-1-one] are within error of each other in “remaining glucose concentration” value: 261 ± 7.2 mg/dL for the first, 249 ± 5.2 mg/dL for the second.

Compared with `O=C(/C=C/c1cccc(OCc2ccccc2)c1)c1ccccc1O` [Compound 11, (E)-3-(3-(benzyloxy)phenyl)-1-(2-hydroxyphenyl)prop-2-en-1-one], `O=C(/C=C/c1cccc(OCc2ccccc2)c1)c1ccc(O)cc1O` [Compound 34, (E)-3-(3-(benzyloxy)phenyl)-1-(2,4-dihydroxyphenyl)prop-2-en-1-one] is higher in “remaining glucose concentration” value: 256 ± 13.1 mg/dL for the first, 283 ± 2.6 mg/dL for the second.

Compared with `COc1cccc(/C=C/C(=O)c2cccc(Br)c2)c1` [Compound 14, (E)-1-(3-bromophenyl)-3-(3-methoxyphenyl)prop-2-en-1-one], `COc1cccc(/C=C/C(=O)c2cccc(F)c2)c1` [Compound 41, (E)-1-(3-fluorophenyl)-3-(3-methoxyphenyl)prop-2-en-1-one] is higher in “remaining glucose concentration” value: 262 ± 2.2 mg/dL for the first, 282 ± 10.1 mg/dL for the second.

`COc1cccc(/C=C/C(=O)c2ccc(Cl)cc2)c1` [Compound 15, (E)-1-(4-chlorophenyl)-3-(3-methoxyphenyl)prop-2-en-1-one] and `COc1cccc(/C=C/C(=O)c2ccc(Br)cc2)c1` [Compound 16, (E)-1-(4-bromophenyl)-3-(3-methoxyphenyl)prop-2-en-1-one] are within error of each other in “remaining glucose concentration” value: 272 ± 22.4 mg/dL for the first, 257 ± 10.0 mg/dL for the second.

Going from `COc1ccc(/C=C/C(=O)c2cccc(Br)c2)cc1` [Compound 17, (E)-1-(3-bromophenyl)-3-(4-methoxyphenyl)prop-2-en-1-one] to `COc1ccc(/C=C/C(=O)c2cccc(F)c2)cc1` [Compound 40, (E)-1-(3-fluorophenyl)-3-(4-methoxyphenyl)prop-2-en-1-one], the “remaining glucose concentration” value rises from 248 ± 8.0 mg/dL to 298 ± 15.5 mg/dL.

Going from `COc1ccc(/C=C/C(=O)c2ccc(Br)cc2)cc1` [Compound 18, (E)-1-(4-bromophenyl)-3-(4-methoxyphenyl)prop-2-en-1-one] to `COc1ccc(/C=C/C(=O)c2ccc(Cl)cc2)cc1` [Compound 47, (E)-1-(4-chlorophenyl)-3-(4-methoxyphenyl)prop-2-en-1-one], the “remaining glucose concentration” value rises from 261 ± 12.7 mg/dL to 293 ± 7.8 mg/dL.

`O=C(/C=C/c1ccccc1)c1cc(Br)ccc1O` [Compound 19, (E)-1-(5-bromo-2-hydroxyphenyl)-3-phenylprop-2-en-1-one] and `COc1cccc(/C=C/C(=O)c2cc(Br)ccc2O)c1` [Compound 21, (E)-1-(5-bromo-2-hydroxyphenyl)-3-(3-methoxyphenyl)prop-2-en-1-one] are within error of each other in “remaining glucose concentration” value: 253 ± 7.8 mg/dL for the first, 260 ± 3.3 mg/dL for the second.

`COc1ccc(/C=C/C(=O)c2cc(Br)ccc2O)cc1` [Compound 20, (E)-1-(5-bromo-2-hydroxyphenyl)-3-(4-methoxyphenyl)prop-2-en-1-one] and `COc1ccc(/C=C/C(=O)c2cc(Cl)ccc2O)cc1` [Compound 37, (E)-1-(5-chloro-2-hydroxyphenyl)-3-(4-methoxyphenyl)prop-2-en-1-one] are within error of each other in “remaining glucose concentration” value: 254 ± 17.6 mg/dL for the first, 282 ± 16.4 mg/dL for the second.

First: O=C(/C=C/c1cccc(OCc2ccccc2)c1)c1cc(Br)ccc1O [Compound 22, (E)-3-(3-(benzyloxy)phenyl)-1-(5-bromo-2-hydroxyphenyl)prop-2-en-1-one]
Second: O=C(/C=C/c1ccc(OCc2ccccc2)cc1)c1cc(Br)ccc1O [Compound 23, (E)-3-(4-(benzyloxy)phenyl)-1-(5-bromo-2-hydroxyphenyl)prop-2-en-1-one]
The “remaining glucose concentration” value of the first is lower: 252 ± 0.1 mg/dL for the first, 256 ± 1.3 mg/dL for the second.

Compared with `O=C(/C=C/c1ccc(O)cc1)c1ccccc1O` [Compound 24, (2E)-1-(2-hydroxyphenyl)-3-(4-hydroxyphenyl)-2-propen-1-one], `COc1ccc(/C=C/C(=O)c2ccccc2F)cc1` [Compound 28, (E)-1-(2-fluorophenyl)-3-(4-methoxyphenyl)prop-2-en-1-one] is lower in “remaining glucose concentration” value: 267 ± 3.4 mg/dL for the first, 259 ± 0.3 mg/dL for the second.

First: O=C(/C=C/c1ccc(OCc2ccccc2)cc1)c1ccccc1O [Compound 25, (E)-3-(4-(benzyloxy)phenyl)-1-(2-hydroxyphenyl)prop-2-en-1-one]
Second: O=C(/C=C/c1ccc(OCc2ccccc2)cc1)c1ccccc1I [Compound 53, (E)-3-(4-(benzyloxy)phenyl)-1-(2-iodophenyl)prop-2-en-1-one]
The “remaining glucose concentration” value of the first is higher: 260 ± 3.8 mg/dL for the first, 249 ± 3.6 mg/dL for the second.

`O=C(/C=C/c1cccc(OCc2ccccc2)c1)c1ccccc1` [Compound 30, (E)-3-(3-(benzyloxy)phenyl)-1-phenylprop-2-en-1-one] and `O=C(/C=C/c1ccc(OCc2ccccc2)cc1)c1ccccc1` [Compound 31, (E)-3-(4-(benzyloxy)phenyl)-1-phenylprop-2-en-1-one] are within error of each other in “remaining glucose concentration” value: 285 ± 8.2 mg/dL for the first, 274 ± 13.0 mg/dL for the second.

Compared with `O=C(/C=C/c1ccc2c(c1)OCO2)c1ccccc1` [Compound 32, (E)-3-(benzo[d][1,3]dioxol-5-yl)-1-phenylprop-2-en-1-one], `O=C(/C=C/c1ccc2c(c1)OCO2)c1ccccc1O` [Compound 33, (E)-3-(benzo[d][1,3]dioxol-5-yl)-1-(2-hydroxyphenyl)prop-2-en-1-one] is higher in “remaining glucose concentration” value: 252 ± 18.1 mg/dL for the first, 279 ± 7.6 mg/dL for the second.

`COc1cccc(/C=C/C(=O)c2cc(F)ccc2O)c1` [Compound 35, (E)-1-(5-fluoro-2-hydroxyphenyl)-3-(3-methoxyphenyl)prop-2-en-1-one] and `COc1cccc(/C=C/C(=O)c2cc(Cl)ccc2O)c1` [Compound 38, (E)-1-(5-chloro-2-hydroxyphenyl)-3-(3-methoxyphenyl)prop-2-en-1-one] are within error of each other in “remaining glucose concentration” value: 297 ± 9.3 mg/dL for the first, 266 ± 23.3 mg/dL for the second.

`COc1cccc(/C=C/C(=O)c2ccccc2F)c1` [Compound 39, (E)-1-(2-fluorophenyl)-3-(3-methoxyphenyl)prop-2-en-1-one] and `COc1cccc(/C=C/C(=O)c2ccc(F)cc2)c1` [Compound 42, (E)-1-(4-fluorophenyl)-3-(3-methoxyphenyl)prop-2-en-1-one] are the same in “remaining glucose concentration” value: 285 ± 4.4 mg/dL for the first, 285 ± 1.6 mg/dL for the second.

`O=C(/C=C/c1ccccc1)c1cccc(Cl)c1` [Compound 43, (E)-1-(3-chlorophenyl)-3-phenylprop-2-en-1-one] and `O=C(/C=C/c1ccccc1)c1cccc(Br)c1` [Compound 49, (E)-1-(3-bromophenyl)-3-phenylprop-2-en-1-one] are within error of each other in “remaining glucose concentration” value: 291 ± 9.2 mg/dL for the first, 299 ± 7.3 mg/dL for the second.

Compared with `COc1cccc(/C=C/C(=O)c2cccc(Cl)c2)c1` [Compound 44, (E)-1-(3-chlorophenyl)-3-(3-methoxyphenyl)prop-2-en-1-one], `COc1cccc(/C=C/C(=O)c2cccc(I)c2)c1` [Compound 57, (E)-1-(3-iodophenyl)-3-(3-methoxyphenyl)prop-2-en-1-one] is lower in “remaining glucose concentration” value: 287 ± 13.4 mg/dL for the first, 246 ± 11.3 mg/dL for the second.

Going from `COc1ccc(/C=C/C(=O)c2cccc(Cl)c2)cc1` [Compound 45, (E)-1-(3-chlorophenyl)-3-(4-methoxyphenyl)prop-2-en-1-one] to `O=C(/C=C/c1ccccc1)c1ccc(Cl)cc1` [Compound 46, (E)-1-(4-chlorophenyl)-3-phenylprop-2-en-1-one], the “remaining glucose concentration” value rises from 255 ± 27.1 mg/dL to 295 ± 8.8 mg/dL.

Compared with `O=C(/C=C/c1ccccc1)c1ccccc1Br` [Compound 48, (E)-1-(2-bromophenyl)-3-phenylprop-2-en-1-one], `O=C(/C=C/c1ccccc1)c1ccc(Br)cc1` [Compound 50, (E)-1-(4-bromophenyl)-3-phenylprop-2-en-1-one] is higher in “remaining glucose concentration” value: 249 ± 20.8 mg/dL for the first, 295 ± 5.8 mg/dL for the second.

With `O=C(/C=C/c1ccccc1)c1cccc(I)c1` [Compound 55, (E)-1-(3-iodophenyl)-3-phenylprop-2-en-1-one] the “remaining glucose concentration” value was 294 ± 7.3 mg/dL.

In the case of `O=C(/C=C/c1cccc(OCc2ccccc2)c1)c1ccccc1I` [Compound 54, (E)-3-(3-(benzyloxy)phenyl)-1-(2-iodophenyl)prop-2-en-1-one], the “remaining glucose concentration” value is reported as 238 mg/dL and 238 ± 1.1 mg/dL.
In the case of `COc1ccc(/C=C/C(=O)c2cccc(I)c2)cc1` [Compound 56, (E)-1-(3-iodophenyl)-3-(4-methoxyphenyl)prop-2-en-1-one], the “remaining glucose concentration” value is reported as 233 mg/dL and 233 ± 3.5 mg/dL.

same assay, conditions: FIG. 1; 30 μg/ml, medium glucose 300 mg/dl, remaining glucose after 24 hours

`COc1cccc(/C=C/C(=O)c2ccc(Cl)cc2)c1` [Compound 15, (E)-1-(4-chlorophenyl)-3-(3-methoxyphenyl)prop-2-en-1-one] was tested, and the “glucose absorption activity of adipocytes 3T3-L1 (anti-hyperglycemic ability)” value was “not significantly different”.
With `COc1cccc(/C=C/C(=O)c2ccc(Br)cc2)c1` [Compound 16, (E)-1-(4-bromophenyl)-3-(3-methoxyphenyl)prop-2-en-1-one] the “glucose absorption activity of adipocytes 3T3-L1 (anti-hyperglycemic ability)” value was “not significantly different”.
